Assay results as given in patent publication US7393662B2, “Human EPO mimetic hinge core mimetibodies, compositions, methods and uses” (Centocor, Inc., priority 2004, dated 2008).

What was measured:
EPO receptor = target: T1, EPO receptor (Homo sapiens, UniProt P19235); conditions: cited from earlier work
T1 sequence (P19235 25-508): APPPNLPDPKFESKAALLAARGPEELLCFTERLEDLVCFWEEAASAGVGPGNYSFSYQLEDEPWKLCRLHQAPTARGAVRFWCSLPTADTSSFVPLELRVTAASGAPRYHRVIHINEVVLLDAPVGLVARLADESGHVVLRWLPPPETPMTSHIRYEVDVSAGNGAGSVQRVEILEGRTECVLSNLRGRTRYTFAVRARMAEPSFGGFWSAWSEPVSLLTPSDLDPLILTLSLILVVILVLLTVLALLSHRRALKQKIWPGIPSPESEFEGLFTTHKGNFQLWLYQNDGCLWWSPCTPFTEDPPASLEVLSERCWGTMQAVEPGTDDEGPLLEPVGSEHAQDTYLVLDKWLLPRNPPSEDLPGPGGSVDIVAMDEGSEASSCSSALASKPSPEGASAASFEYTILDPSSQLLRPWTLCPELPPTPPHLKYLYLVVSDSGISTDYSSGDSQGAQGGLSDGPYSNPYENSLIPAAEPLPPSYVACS

[1] = in 50% serum; cited from earlier work
[2] = cited from earlier work
normal mice = experiment: in vivo effects on erythropoiesis (hematocrit) in normal mice; conditions: for duration of response (elevated hematocrit) compared with rHuEPO / maximal hematocrit / maximal response compared with rHuEPO: normal mice, equal activity units / dosed equally
Source text: A specific, non-limiting, example of this invention is the EMP-hinge core mimetibody construct where V is the first several N-terminal amino acids of a naturally occurring HC or LC antibody, P is a single copy of the bioactive EMP-1 peptide and L is a tandem repeat of either Gly-Ser or Gly-Gly-Gly-Ser flexible linker, H is a hinge core region and CH2 & CH3 are of the IgG1 or IgG4 isotype subclass. It is thought that this structure will constrain the EMP-1 peptide, but allow sufficient flexibility such that the dimerization of the peptides as part of the assembled homodimer is stabilized. […] This construct is efficiently secreted from cells and appears to be properly folded; overcoming problems associated with 1st generation mimetibodies.
(§1) In vivo studies were done in normal mice to compare the half-life of EMP-Hinge core mimetibody to that of rHuEPO and to compare their effects on erythropoiesis.

[3] = serum concentration by ELISA / half-life in normal mice; format: in vivo; conditions: serum concentrations by ELISA
Experimental: as §1
The serum concentrations of both rHuEPO and EMP-Hinge core mimetibody were measured by ELISA.

[4] = tested on: EPO dependent UT-7/EPO cell line; experiment: in vitro bioactivity (cell proliferation/viability, MTS) assay in EPO dependent UT-7/EPO cells; format: cell-based, human; conditions: for activity/potency, fold greater than the EMP-1 peptide: viability 48 hours after treatment, molar basis; for activity compared with rHuEPO: in vitro cell proliferation assay
Experimental: The activity of EMP-Hinge core mimetibody was first tested in an in vitro bioactivity assay. For this assay, the EPO dependent UT-7/EPO cell line, derived from a patient with acute megakaryoblastic leukemia, was used (Komatsu et al., 1993, Blood, vol. 82 (2), 456-464). These cells undergo programmed cell death 48 to 72 hours after withdraw from media supplemented with rHuEPO. Cells that have been incubated in the absence of rHuEPO for 24 hours can be saved if treated with rHuEPO or an EPO agonist. EMP-Hinge core mimetibody was added to cells starved without rHuEPO and cell viability was determined 48 hours after treatment using the tetrazolium compound MTS (CellTiter 96 Aqueous One Solution, Promega) that is metabolized by living cells to yield a product with an absorbance that can be measured. […] In addition, these same cells were stimulated with EMP-Hinge core mimetibody and tyrosine phosphorylation patterns visualized by running cell lysate through a polyacrylamide gel.

[5] = tested on: cells that express the EPO receptor; experiment: complement lysis of cells that express the EPO receptor (immune effector function); format: cell-based
Source text: It has been shown that mutation of two […] (L) residues, L234 & L235, in the IgG1 lower hinge region to alanine (A) will abrogate the ability of the immunoglobulin to mediate complement dependent cytotoxicity (CDC) and antibody dependant cellular cytotoxicity (ADCC) (Hezereh et al., 2001, J. Virol., vol. 75 (24), 12161-68). […] This may be due to the low number of receptors that are found on erythroid progenitor cells.

[6] = listed as EMP-Hinge core mimetibody

**Q.** Which results are given for GGTYSCHFGPLTWVCKPQGG [EMP-1]?
**A.** activity, fold less than HuEPO (EPO receptor): 10,000 to 100,000 fold; ex-vivo half-life [1]: 8 h

**Q.** What does the source list for “erythropoietin: glycoprotein hormone of 165 amino acids and four carbohydrate chains, primary regulator of erythropoiesis”?
**A.** time at which peak serum levels are achieved ([2]; after subcutaneous administration): 5 to 24 h; circulating half-life ([2]; intravenously administered, patients with CRF): 3 to 4 h; detectable levels of plasma erythropoietin maintained ([2]; within the therapeutic dose range): at least 24 hours

**Q.** Which “change in hematocrit (in vivo expansion of erythroid progenitors)” value (normal mice; in vivo) does the source give for “EMP-hinge core mimetibody: V (QIQ)-EMP-1 peptide-GS or GGGS linker-hinge core CPPCP-CH2-CH3 of IgG1 or IgG4; assembled homodimer” here?
**A.** Its value is “significant increases in hematocrit”.

**Q.** And the “duration of response (elevated hematocrit) compared with rHuEPO” value (normal mice)?
**A.** Its value is “elevated levels are maintained for a longer period”.

**Q.** What about the “maximal hematocrit / maximal response compared with rHuEPO” value (normal mice) of the same substance?
**A.** The value was “significantly higher”.

**Q.** What about the “duration of response (elevated hematocrit) compared with rHuEPO” value (normal mice; [6]) of the same substance?
**A.** Its value is “prolonged”.

**Q.** What about the “maximal hematocrit / maximal response compared with rHuEPO” value (normal mice; [6]) of the same substance?
**A.** Its value is “higher maximal response”.

**Q.** And the “approximate half-life relative to rHuEPO” value [3]?
**A.** The value was “at least several times”.

**Q.** What about the “potency, fold less than rHuEPO” value ([4]; UT-7/EPO cells, on a molar basis) of the same substance?
**A.** The value was 5 fold.

**Q.** And the “activity/potency, fold greater than the EMP-1 peptide” value ([4]; UT-7/EPO cells)?
**A.** The value was “more than 500 fold”.

**Q.** And the “activity/potency, fold greater than the EMP-1 peptide” value ([4]; UT-7/EPO cells, listed as EMP-Hinge core mimetibody)?
**A.** The value was 500 fold.

**Q.** What about the “activity compared with rHuEPO” value [4] of the same substance?
**A.** Its value is “substantially similar”.

**Q.** And the “activity compared with rHuEPO” value [4, 6]?
**A.** The value was “in the range of rHuEPO”.

**Q.** And the “effector function associated effects” value [5]?
**A.** Its value is “no effector function associated affects have been observed”.

**Q.** And the “complement lysis of cells that express the EPO receptor” value ([5]; preliminary studies)?
**A.** Its value is “does not mediate complement lysis”.
